From patent US9315531B2, “Titanocene-gold derivatives comprising thiolato ligands” (Research Foundation of the City University of New York, priority 2014, dated 2016) come the findings set out here.

For one data set, the system named is HEK-293T. Kind of data set: Cell viability assay (XTT), HEK-293T. The data set is classed as cell-based. The following applies: 72 h incubation; non-tumorigenic human embryonic kidney cell line.
A further data set relates to RPTC. Nature of the data set: Cell viability assay (XTT), RPTC. The data set is classed as cell-based. The following applies: 72 h incubation; human renal proximal tubular cells. The text has this:
Cell Culture: Human renal cell carcinoma lines A498, Caki-1 and UO31, as well as the human prostate carcinoma cell lines DU145 and PC3 were newly obtained for these studies from the American Type Culture Collection (ATCC) (Manassas, Va., USA) and cultured in Roswell Park Memorial Institute (RPMI-1640) (Mediatech Inc., Manassas, Va.) media containing 10% fetal bovine serum (FBS, Life Technologies, Grand Island, N.Y.), 1% Minimum Essential Media (MEM) nonessential amino acids (NEAA, Mediatech) and 1% penicillin-streptomycin (PenStrep, Mediatech). HEK-293T cells were newly purchased from ATCC (Manassas, Va., USA) and maintained in Dulbecco's modified Eagle's medium (DMEM) (Mediatech) supplemented with 10% FBS, 1% NEAA and 1% PenStrep. Normal human renal epithelial cells (RPTC) were purchased from Lifeline Cell Technology (Lifeline Cell Technology, Frederick, Md., USA) and maintained in Lifeline's Renal Life Medium from Lifeline Cell Technology supplemented with 2.4 mM L-glutamine, 5 μg/mL rh insulin, 1.0 nM epinephrine, 10 nM triiodothyronine, 0.1 μg/mL hydrocortisone hemisuccinate, 10 ng/mL rhEGF, 0.50% FBS, 5 μg/mL transferrin PS. All cells were cultured at 37° C. and 5% CO2 in a humidified incubator.
(§1) Cell Viability Assay: Cells were seeded at a concentration of 5000 cells/90 μl per well of either RPMI or DMEM without phenol red and without antibiotics, supplemented with 10% FBS and 2 mM L-glutamine into tissue culture grade 96-well flat bottom microplates (BioLite Microwell Plate, Fisher Scientific, Waltham, Mass., USA) and grown for 24 h at 37° C. in a humidified incubator. Afterwards, the intermediate dilutions of the compounds were added to the wells (10 μL) to obtain a final concentration ranging from 0.1 to 200 μM, and the cells were incubated for 24 h or 72 h. […] The optical absorbance of each well in a 96-well plate was quantified using BioTek ELx808 absorbance microplate reader (BioTek Winooski, Vt.) set at 450 nm wavelength. The percentage of surviving cells was calculated from the ratio of absorbance of treated to untreated cells.
Background: Tetrazolium assays rely on reduction of a dye to a coloured formazan, in cell work by metabolically active cells.

For another data set, the system named is UO31. Nature of the data set: Cell viability assay (XTT), UO31. The data set is classed as cell-based, human. The following applies: 72 h.
Excerpt: Cell Culture: Human renal cell carcinoma lines A498, Caki-1 and UO31, as well as the human prostate carcinoma cell lines DU145 and PC3 were newly obtained for these studies from the American Type Culture Collection (ATCC) (Manassas, Va., USA) and cultured in Roswell Park Memorial Institute (RPMI-1640) (Mediatech Inc., Manassas, Va.) media containing 10% fetal bovine serum (FBS, Life Technologies, Grand Island, N.Y.), 1% Minimum Essential Media (MEM) nonessential amino acids (NEAA, Mediatech) and 1% penicillin-streptomycin (PenStrep, Mediatech). HEK-293T cells were newly purchased from ATCC (Manassas, Va., USA) and maintained in Dulbecco's modified Eagle's medium (DMEM) (Mediatech) supplemented with 10% FBS, 1% NEAA and 1% PenStrep. […]
as §1, with “incubator.” for “incubator. Afterwards, the intermediate dilutions of the compounds were added to the wells (10 μL) to obtain a final concentration ranging from 0.1 to 200 μM, and the cells were incubated for 24 h or 72 h.”

A short description of data set [1]: Stability in solution (DMSO-d6, CDCl3, DMSO/PBS). It counts as physicochemical. The source says:
(§2) Both compound 2 and compound 3 were less acidic than titanocene dichloride and were soluble in DMSO/water, DMSO/PBS and DMSO/media (1:99) mixtures at micromolar concentrations. These compounds were unusually stable methyl-containing titanocene moieties that were stable as solids at room temperature, while exposed to air in CDCl3 solution for at least five days.

A short description of data set [2]: Solubility in DMSO/aqueous mixtures. The data set is classed as physicochemical. As to conditions: at micromolar concentrations.
Excerpt: as §2

The next data set deals with plasmid pBR322 DNA. Kind of data set: Electrophoresis mobility shift assay. The data set is classed as binding. The following applies: metal/DNAbp ratios 0.25-2.0, 37° C., 20 h.
The procedure of data set [3]:
The lethal dose (LD) and maximum tolerated doses (MTD) of compound 2 were evaluated in C57/BL6 mice (see experimental for details). […] Twenty-four hours after the last dose all mice used in the MTD study were euthanized and blood plasma, liver, spleen and kidneys were collected and used for histological analysis.
Lethal and maximum tolerated doses (LD and MTD): Determination of lethal and maximum tolerated doses (LD and MTD) in mice: The preliminary toxicity testing of compound 2 was performed in C57BL/6 female mice six to eight weeks of age, maintained in accordance with institutional guidelines at the University of Hawaii Cancer Center (UHCC) governing the care of laboratory animals (IACUC number: A3423-01). To determine the lethal dose, mice were treated for five consecutive days at dosages ranging from 1.5 mg/kg/day to 6 mg/kg/day. One mouse per dose was used. Mice were weighed every forty-eight hours, and sacrificed twenty-four hours after the last dose. […] In order to determine the maximum tolerated dose (MTD) the animals were monitored by trained individuals for pain and distress as appropriate for the animal, under conditions and by procedures established by the UHCC vivarium veterinarian staff and research personnel (BTE). The maximum tolerated dose (MTD) was determined by observing the progression of the mice treated at doses below the lethal dose. Body weights, changes in behavior and signs of distress were recorded. The dose at which neither debilitating effects nor sign of distress were observed was set as the MTD. More specifically the signs for distress monitored were: 1. Decreased food and water consumption; 2. […] Abnormal posture/positioning (e.g., head-pressing, hunched back); 4. Unkempt appearance (erected, matted, or dull haircoat); 5. Self-mutilation, gnawing at limbs; 6. Excessive self-imposed isolation/hiding. […] One group of mice was treated with the solvent (negative control).

A short description of data set [4]: Pharmacokinetics in blood/plasma (ICP-MS, gold content).
Description: Blood was collected by retro-orbital bleeding into heparinized blood collection vials on ice at time intervals of 30 minutes, 2 hours, 6 hours, 24 hours, and 48 hours after the first dose.
Gold and titanium content was determined using ICP-MS. […] The mixture was heated at 90° C. for 5 hours. After cooling, the samples were diluted with water, 40 ppb of Indium internal standard was added and analyzed in a Thermo Scientific XSERIES 2 ICP-MS with ESI PC3 Peltier cooled spray chamber with SC-FAST injection loop and SC-4 autosampler. All the elements were analyzed using He/H2 collision-reaction mode. Plasma from control mice was spiked with the test compounds to determine the extraction efficiency of gold and titanium.
Pharmacokinetic estimates were obtained from the plasma concentration-time profiles by non-compartmental analysis.

Description for HEK-293T: HEK-293T cells were newly purchased from ATCC (Manassas, Va., USA) and maintained in Dulbecco's modified Eagle's medium (DMEM) (Mediatech) supplemented with 10% FBS, 1% NEAA and 1% PenStrep. […] All cells were cultured at 37° C. and 5% CO2 in a humidified incubator.
Description for plasmid pBR322 DNA: Agarose gel electrophoresis assays were performed whereby decreased electrophoretic mobility of both forms were taken as evidence of metal-DNA binding.
Mobility Shift Assay: 10 μL aliquots of pBR322 plasmid DNA (20 μg/mL) in buffer (5 mM Tris/HCl, 50 mM NaClO4, pH=7.39) were incubated with different concentrations of the compounds (2, 3, 4, 5), and titanocene dichloride) (in the range 0.25 and 4.0 metal complex:DNA bp) at 37° C. for 20 h in the dark. Samples of free DNA and cisplatin-DNA were prepared as controls. After the incubation period, the samples were loaded onto the 1% agarose gel. The samples were separated by electrophoresis for 1.5 h at 80 V in Tris-acetate/EDTA buffer (TAE). Afterwards, the gel was stained for 30 min with a solution of GelRed nucleic acid stain.

Take “[(η-C5H5)2TiMe(μ-mba)Au(PPh3)] [Compound 2]”: the IC50 (commonly the concentration at which inhibition is half-maximal) in the data set on HEK-293T amounted to 0.49 ± 0.0008 µM; in the data set with RPTC, 2.67 ± 0.12 µM. The “IC50 UO31” value in the data set with UO31 is “nanomolar range”. In addition, the “half-life in DMSO-d6” value in data set [1] (DMSO-d6) is given as “eight”. Further, the “half-life fold larger than corresponding compound 6 / compound 7” value in data set [1] (DMSO-d6, same solvent) was “sixteen”. Also, in data set [1] (micromolar concentration in 1:99 DMSO/PBS, 23 h, physiological pH), the “UV-vis spectra over time” value is on record as “did not change over time”. The “solubility in DMSO/water, DMSO/PBS and DMSO/media (1:99) mixtures” value in data set [2] is “soluble”. The “effect on electrophoretic mobility of plasmid DNA forms” value in the data set on plasmid pBR322 DNA is listed as “did not affect the mobility”. Besides, the “necropsy findings at MTD” value in data set [3] (10 mg/kg/day compound 6, 5 mg/kg/day compound 2) was “normal liver and slightly enlarged spleens”. In addition, in data set [3] (C57/BL6 mice, no visible signs of distress over seven days), the “maximum tolerated dose (MTD)” value turned out to be 5 mg/kg/day. In addition, the “lethal dose (LD)” value in data set [3] (C57/BL6 mice, once daily subcutaneous injection) was 6 mg/kg/day. Moreover, in data set [4] (48 hours after the first dose, 3 mg/kg), the “blood concentration at the time of the second dose” value was 40400 ± 6000 ng/mL. The absorption into blood result in data set [4] (blood levels up to twenty-four hours) is on record as “slow absorption”.
